Laboratory results from paper PMC9774249, “A Novel Peptide with Antifungal Activity from Red Swamp Crayfish Procambarus clarkii” (Antibiotics, 2022).
Where two headings read alike, the source gives them in different places. Where no end group is shown, it is not given here.

Columns and labels:
S. aureus ATCC 25923 = format: cell-based, Staphylococcus aureus
Protocol: (§1) Natural extracts derived from hemocytes and hemolymph of P. clarkii were liophylized and then resuspended in ultrapure water to obtain a protein content of 22 µg/mL and 1400 µg/mL, respectively. MIC values of extracts were determined by a micro-method previously described based on serial dilution 1:2 of the extracts, using Mueller Hinton II medium and Sabouraud medium (for C. albicans), in 96-well microplates and starting from concentrations of 50% v/v to 1.5 % v/v in a final volume equal to 100 μL. Thus, 10 μL of microbial suspension (5 × 10^6 CFU/ mL) obtained from a bacterial culture grown at 37 °C for 24 h on Tryptic Soy Agar (TSA) in 5 mL of 0.9% NaCl, with a turbidity equivalent to a 0.5 McFarland standard was added to 96-well plates and incubated at 37 °C for 24 h. MICs of extracts were determined by a microplate reader (GloMax®-Multi Detection System, Promega Italia s.r.l, Milan, Italy) with the lowest concentration of the sample whose optical density (OD) at 570 nm was similar to negative control wells (broth without inoculum to control the sterility of medium). Moreover, a positive growth control (bacterial tested strain in the medium without extracts to compare the growth of cells with samples) and a sample control (extract solutions without inoculum to control the absorbance of the samples at different concentrations) were also added.
(§2) The same methods and media were used to determine the antimicrobial activity of synthetic peptides #3, #5, #7, and #14, and derivatives. They were dissolved in ultrapure water, or 1 mL ultrapure water with 40 μL NH4OH (28% v/v) in the case of peptide #14, to obtain a stock solution of 5 mg/mL. Working solutions of 250 μg/mL were prepared for each peptide in MHII or Sabouraud, and test solutions in a 96 wells plate were obtained by diluting in a series 1:2. Each assay was performed in triplicate.

P. aeruginosa ATCC 15442 = format: cell-based, Pseudomonas aeruginosa
Protocol: as §1, §2

E. coli ATCC 25922 = format: cell-based, Escherichia coli
Protocol: as §1, §2

E. faecalis ATCC 29212 = format: cell-based, Enterococcus faecalis
Protocol: as §1, §2

C. albicans ATCC 10231 [1] = format: cell-based, Candida albicans
Protocol: as §1, §2

C. albicans ATCC 10231 [2] = format: cell-based, Candida albicans; conditions: ATCC 10231, 24 h
Protocol: Sub-MIC concentrations were tested for their ability to interfere with the growth as sessile community of S. aureus ATCC 25923, P. aeruginosa ATCC 15442, and C. albicans ATCC 10231, as previously described. Bacterial strains or the fungal strain were incubated in test tubes with TSB or Sabouraud (5 mL) containing 2% w/v glucose at 37 °C for 24 h. After that, small aliquots (2.5 μL) from the diluted microbial suspensions whose turbidity was equivalent to a 0.5 McFarland standard were added to each well of a polystyrene sterile flat-bottom 96-well plate filled with TSB or BS (200 μL) with 2% w/v glucose. Sub-MIC concentration values of amino acidic fraction from hemocytes and hemolymph of P. clarkii or of chemically synthesized peptides were directly added to the wells and the plates were incubated at 37 °C for 24 h. After biofilm growth, samples were washed twice with sterile 0.9% NaCl and stained with 200 μL of 0.1% w/v crystal violet solution for 15 min at 37 °C [58]. Excess solution was discarded, and the plate was washed twice using tap water. […] Last, the absorbance was determined at 600 nm using a microplate reader (GloMax®-Multi Detection System, Promega Italia s.r.l, Milan, Italy). […] The percentage of inhibition was calculated through the formula:% Inhibition = [(OD growth − OD sample)/OD growth control] × 100. […]

[3] = test system: C. albicans ATCC 10231 biofilm; assay: Scanning electron microscopy of biofilm morphology; format: cell-based, Candida albicans; conditions: 25 μg/mL (sub-MIC), 24 h, versus control
Protocol: The morphological changes in C. albicans ATCC 10231 cells were assessed by scanning electron microscopy (SEM, Phenom ProX, PhenomWorld, Eindhoven, Netherlands), using the method described by Bezerra et al., with some modifications. Biofilms were fixed with a 4% formaldehyde solution in DPBS for 30 min at 37 °C. Then, the biofilms were washed three times with sodium phosphate buffer (pH = 7.4). Next, samples were dehydrated with increased ethanol concentrations (30%, 50%, 70%, and 100%) for 10 min at 24 °C. Lastly, the final dehydration was conducted with […] (HDMS) for 10 min, removing the solvent at the end of washing to allow the samples to air dry. The samples were analyzed by scanning electron microscopy (SEM, Phenom ProX, PhenomWorld).

C. albicans ATCC 10231 [4] = assay: Cell membrane integrity, propidium iodide uptake; format: cell-based, Candida albicans; conditions: 25, 20 and 15 μg/mL (sub-MIC), 24 h
Protocol: The cell membrane integrity of C. albicans ATCC 10231 after exposure to peptide #14d was evaluated using the PI uptake assay, as described by Bezerra et al., with some modifications. C. albicans ATCC 10231 was incubated with the peptide #14d in the same conditions reported for inhibition of biofilm formation. Thus, 20 μL of propidium iodide (PI, Molecular probes^TM, Fisher Scientific, Erembodegem, Belgium) was added to each well and the plate was incubated in the dark for 30 min at 25 °C. Then, the plate was washed three times with 0.9% NaCl and observed with an Olympus FV1200 confocal microscope with TIRF (Total internal reflection fluorescence) integrated, using an excitation wavelength of 535 nm and emission wavelength of 617 nm.

C. albicans ATCC 10231 [5] = assay: Overproduction of reactive oxygen species (DCFH-DA); format: cell-based, Candida albicans; conditions: 25 and 20 μg/mL
Protocol: The ROS overproduction in C. albicans ATCC 10231 due to peptide #14d was evaluated using the method described by Bezerra et al., with some modifications. C. albicans ATCC 10231 was incubated with peptide #14d in the same conditions reported for biofilm inhibition formation. Then, the formed biofilm was washed with 0.9% NaCl three times to remove the Sabouraud liquid medium. After this procedure, 20 μL of 2′,7′ dichlorofluorescein diacetate (DCFH-DA) was added to each well and the plate was incubated in the dark for 30 min at 25 °C. DCFH-DA is oxidized by ROS to dichlorofluorescein, which emits green fluorescence. Lastly, the biofilms were washed with 0.9% NaCl three times and observed with a fluorescence microscope with an excitation wavelength of 488 nm and emission wavelength of 525 nm.

selected strains = assay: EC50 under low-salt conditions (viable count); format: cell-based; conditions: 10 mM sodium phosphate buffer, 100-0.15 μg/mL, 3 h 37 °C, CFU count, maximum tested 100 μg/mL
Protocol: The antimicrobial activity of the chemically synthesized peptides #3, #5, #7, and #14, and their derivatives, against selected strains were evaluated in terms of peptide half-maximal effective concentration to inhibit 50% of the viable bacteria (EC50), as reported by other authors. Briefly, 5 × 10^4 CFU per well of tested microorganisms were incubated with peptide concentrations from 100 to 0.15 μg/mL (1:2 serial dilutions) for 3 h at 37 °C in 100 μL of 10 mM sterile sodium phosphate buffer. After 3 h, 10 μL of each dilution was spotted in triplicate on Tryptic Soy Agar plates and incubated at 37 °C for 24 h. After the incubation time, the number of colonies from any sample were counted and compared with the CFU viable count of the none-treated growth control.

[6] = synthetic peptides, S. aureus ATCC 25923, maximum tested 250 μg/mL, 1:2 dilutions, MHII, 37 °C 24 h, triplicate
[7] = synthetic peptides, P. aeruginosa ATCC 15442, maximum tested 250 μg/mL, 1:2 dilutions, MHII, 37 °C 24 h, triplicate
[8] = synthetic peptides, E. coli ATCC 25922, maximum tested 250 μg/mL, 1:2 dilutions, MHII, 37 °C 24 h, triplicate
[9] = synthetic peptides, E. faecalis ATCC 29212, maximum tested 250 μg/mL, 1:2 dilutions, MHII, 37 °C 24 h, triplicate

| Sequence | MIC (S. aureus ATCC 25923; ATCC 25923, 24 h) [µg/mL] | MIC (P. aeruginosa ATCC 15442; ATCC 15442, 24 h) [µg/mL] | MIC (E. coli ATCC 25922; ATCC 25922, 24 h) [µg/mL] | MIC (E. faecalis ATCC 29212; ATCC 29212, 24 h) [µg/mL] | MIC (C. albicans ATCC 10231 [1]; ATCC 10231, 24 h) [µg/mL] | BIC50 (biofilm inhibition concentration) (C. albicans ATCC 10231 [2]) [µg/mL] | biofilm morphology by SEM [3] | membrane integrity (PI uptake, red fluorescence) (C. albicans ATCC 10231 [4]) | ROS overproduction (DCFH-DA fluorescence) (C. albicans ATCC 10231 [5]) | minimal fungicidal concentration (MFC) (C. albicans) [µg/mL] | EC50 (concentration to inhibit 50% of the viable bacteria) (selected strains) [µg/mL] | MIC (S. aureus ATCC 25923; [6]) [µg/mL] | MIC (P. aeruginosa ATCC 15442; [7]) [µg/mL] | MIC (E. coli ATCC 25922; [8]) [µg/mL] | MIC (E. faecalis ATCC 29212; [9]) [µg/mL] | MIC (C. albicans ATCC 10231 [1]; synthetic peptides, C. albicans ATCC 10231, maximum tested 250 μg/mL, 1:2 dilutions, Sabouraud, 37 °C 24 h, triplicate) [µg/mL] |
| --- | --- | --- | --- | --- | --- | --- | --- | --- | --- | --- | --- | --- | --- | --- | --- | --- |
| FHLVWRAGGTF [Peptide #14d] | > 250 | > 250 | > 250 | > 250 | 31.2 | 23.2 | evident variations in the morphology, inducing wrinkles and scars | damaged the cell membrane and induced an increase in red fluorescence intensity | did not induce ROS overproduction | 62.5 | – | – | – | – | – | – |
| FSLVNAVDQTT [Peptide #14] | > 250 | > 250 | > 250 | > 250 | > 250 | – | – | – | – | – | > 100 | – | – | – | – | – |
| IIIRKGRW [Peptide #3d] | > 250 | > 250 | > 250 | > 250 | – | – | – | – | – | – | – | – | – | – | – | – |
| NNWTGADCKAATLK [Peptide #5] | > 250 | > 250 | > 250 | > 250 | > 250 | – | – | – | – | – | > 100 | – | – | – | – | – |
| NWWTGARCKAATLK [Peptide #5d, synthetic derivative of natural peptide #5] | – | – | – | – | – | – | – | – | – | – | – | > 250 | > 250 | > 250 | > 250 | – |
| SSGYGGYGGGRF [Peptide #3] | – | – | – | – | – | – | – | – | – | – | > 100 | > 250 | > 250 | > 250 | > 250 | > 250 |
| YGGYFGNR [Peptide #7] | > 250 | > 250 | > 250 | > 250 | > 250 | – | – | – | – | – | > 100 | – | – | – | – | – |
